# What was measured:
# cGAS = cGAS (Homo sapiens (Human), UniProt Q8N884); assay: Human cGAS enzyme assay (hcGAS IC50, in vitro), cGAMP formation by RapidFire MS; assay type: biochemical;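 further: enzyme activated by 45 bp dsDNA with GTP and ATP (30 µM each), 60 min compound pre-incubation then 90 min reaction, cGAMP relative to cyclic-di-GMP internal standard, 8-point dilutions up to 10 µM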
# [1] = test system: cellular cGAS activity in baculovirus-stimulated THP1-Dual cells (IRF dependent Lucia luciferase reporter); assay: Human cGAS cell assay: inhibition of IFN induction in virus-stimulated THP1 cells (THP1(vir) IC50); assay type: cell-based; conditions: Homo sapiens, THP1-Dual; inhibition of IFN induction in virus-stimulated THP1 cells; read-out: THP1(vir) IC50
# Text: (§1) 6.2 Method: Human cGAS Cell Assay and cGAMP Stimulated Counter Cell Assay (THP1(vir) IC50 and THP1(cGAMP) IC50)
# (§2) THP1-Dual™ cells (InvivoGen #thpd-nfis) expressing IRF dependent Lucia luciferase reporter were used as basis for both assays. For the detection of cellular cGAS activity cells were stimulated by a baculovirus (pFastbac-1, Invitrogen, no coding insert) infection that delivers the cGAS enzyme stimulating double-stranded DNA (measurement of THP1(vir) IC50).
# (§3) For the counter assay, cells were stimulated by cGAMP (SigmaAldrich #SML1232) to activate the identical pathway independent and directly downstream of cGAS (measurement of THP1(cGAMP) IC50). Pathway activity was monitored by measuring the Lucia luciferase activity induced by either DNA stimulated cGAS enzyme activity (measurement of THP1(vir) IC50) or by cGAMP directly (measurement of THP1(cGAMP) IC50, counter assay).
# (§4) Compounds were delivered in 10 mM DMSO solution, serially diluted and transferred to the 384 well assay plate (Greiner #781201) using an Echo acoustic dispenser. Typically, 8 concentrations were used with the highest concentration at 10 μM in the final assay volume followed by ˜1:5 dilution steps. DMSO concentration was set to 1% in the final assay volume. The 384 well assay plate contained 21 test compounds (column 1-22), and DMSO in column 23 and 24.
# (§5) Cells, cultivated according to manufacturer conditions, were harvested by centrifugation at 300 g/10 min and were then resuspended and diluted to 1.66E5 cells/ml in fresh cell culture medium (RPMI 1640 (Gibco #A10491-01), 10% FCS (Gibco #10500), 1× GlutaMax (Gibco #35050-061), 1× Pen/Strep solution (Gibco #15140-122), 100 μg/ml Normocin (InvivoGen #ant-nr), 100 μg/ml Zeocin (InvivoGen #ant-zn), 10 μg/ml Blasticidin S (Life Technologies #A11139-03)). The baculovirus solution was then added 1:200 (have varied according to virus batch) to the cells (measurement of THP1(vir) IC50).
# (§6) 30 μL of the cell/virus-mix were added to each well of the compound plate from column 1-23 via MultiDrop Combi dispenser (5000 cells/well). In column 24, 30 μl/5000 cells/well without virus were added as a low control.
# (§7) The plates were then incubated for 18 h at 37° C. in a humidified incubator.
# (§8) Following that, 15 μl of QuantiLuc detection reagent (InvivoGen #rep-qlcg5) were added to each well using a MultiDrop Combi. Measurement was done immediately after the addition using an EnVision reader (US-luminescence read-mode).
# (§9) For data evaluation and calculation, the measurement of the low control was set as 0% control and the measurement of the high control was set as 100% control. The IC50 values were calculated using the standard 4 parameter logistic regression formula. Calculation: [y=(a−d)/(1+(x/c)^b)+d], a=low value, d=high value; x=conc M; c=IC50 M; b=slope
# [2] = test system: cGAMP-stimulated THP1-Dual cells (pathway directly downstream of cGAS); assay: cGAMP stimulated counter cell assay: inhibition of IFN induction in cGAMP-stimulated THP1 cells (THP1(cGAMP) IC50); assay type: cell-based, human; conditions: for IC50: Homo sapiens, THP1-Dual, inhibition of IFN induction in cGAMP-stimulated THP1 cells, read-out: THP1(cGAMP) IC50 (converted); for Ratio THP1(cGAMP) IC50 / THP1(vir) IC50: selectivity for cGAS inhibition
# Text: as §1, §2, §3, §4, §5, §6, §7, §8, §9
# [3] = test system: cellular cGAS activity in dsDNA-stimulated human whole blood; assay: Human whole blood assay (hWB IC50): IFNα2α production after dsDNA transfection; assay type: cell-based; conditions: inhibition of IFN induction in dsDNA-stimulated human whole blood
# Procedure: 6.3 Method: Human Whole Blood Assay (Human WB IC50)
# For the detection of cellular cGAS activity human whole blood was stimulated by transfection with double stranded DNA. Pathway activity was monitored by measuring the IFNα2α production.
# Compounds were delivered as 10 mM DMSO solution and serially diluted and transferred to the 96-well cell culture plate (Corning #3595), prefilled with 20 μl OptiMEM (Gibco, #11058-021) in each well, using an Echo acoustic dispenser. Typically, 8 concentrations were used with the highest concentration at 10 µM in the final assay volume followed by ˜1:5 dilution steps. DMSO concentration was set to 0.1% in the final assay volume. The 96-well assay plate contained 10 test compounds, and DMSO in control wells.
# Collection of human whole blood from 3 or more healthy donors (male or female, no medication for 7 days except contraceptive and thyroxine) as Na-Citrate blood (e.g. 3.8% in Monovettes from Sarstedt) was conducted in parallel. Whole blood was kept at room temperature for a maximum of 3 hours after collection until use in the assay.
# 160 μl of the whole blood samples was transferred to each well of the 96-well assay plates filled with compound/OptiMEM. All assay plates were prepared as duplicates with blood from different donors. Blood plates were kept at room temperature for 60 minutes and continuous shaking with 450 rpm, covered with the lid, but not sealed.
# 20 μl OptiMEM and 9.6:1 Fugene was added to all low control wells.
# After covering assay plates with aera seals and the lid, blood plates were kept at room temperature for 30 minutes and continuous shaking with 450 rpm, followed by an overnight incubation of 22 h at 37° C. in the incubator, without shaking.
# For the detection of IFNα-2α in human plasma, the biotinylated capture antibody (Antibody set IFNA2, Meso Scale Diagnostics #B21VH-3, including coating and capture antibody) was diluted 1:17.5 in Diluent 100 (Meso Scale Diagnostics #R^50AA-4), according to the manufacturer's directions. U-Plex MSD GOLD 96-well Small Spot Strepavidin SECTOR Plates (Meso Scale Diagnostics #L45SA-5) were coated with 25 μl diluted capture antibody. Coated plates were incubated for 60 min at room temperature under continuous shaking at 700 rpm. MSD IFNα-2α plates were washed three times with 150 μl wash buffer (1x HBSS, 0.05% Tween).
# After blocking the plates with 100 μl block solution/well (1x HBSS with 0.2% Tween, 2% BSA) for 60 min at room temperature and continuous shaking at 700 rpm, plates were emptied as dry as possible by dumping just before continuing with the human plasma.
# Whole Blood assay plates were centrifuged at 1600 rpm for 10 minutes. 25 μl of supernatant was transferred with a pipetting robot from each whole blood plate to the corresponding IFNα-2α plate. Plates were sealed with microplate seals and kept at room temperature again under continuous shaking at 700 rpm for two hours.
# Next MSD IFNα-2α plates were washed three times with 150 μl wash buffer (1×HBSS, 0.05% Tween), before adding 25 μl MSD SULFO-TAG IFNα-2α Antibody solution (1:100 diluted in Diluent 3 (Meso Scale Diagnostics #R50AP-2) to each well of the plates.
# Afterwards plates were sealed with microplate seals and kept at room temperature again under continuous shaking at 700 rpm for two hours. Finally, MSD IFNα-2α plates were washed three times with 150 μl wash buffer (1×HBSS, 0.05% Tween). 150 μl 2× Read buffer was added to each well and plates were immediately measured with the MSD Sector S600 Reader using the vendor barcode.
# For data evaluation and calculation, % control calculation of each well was based on the mean of high (DNA stimulated control) and mean of low (unstimulated control) controls by using the following formula:
# [counts(sample)−counts(low))/(counts(high)−counts(low))]*100
# The IC50 values were calculated using the standard 4 parameter logistic regression formula. Calculation: [y=(a−d)/(1+(x/c)^b)+d], a=low value, d=high value; x=conc M; c=IC50 M; b=slope
# [4] = biochemical (in vitro) cGAS inhibition
# Chain of cGAS (Q8N884 whole entry): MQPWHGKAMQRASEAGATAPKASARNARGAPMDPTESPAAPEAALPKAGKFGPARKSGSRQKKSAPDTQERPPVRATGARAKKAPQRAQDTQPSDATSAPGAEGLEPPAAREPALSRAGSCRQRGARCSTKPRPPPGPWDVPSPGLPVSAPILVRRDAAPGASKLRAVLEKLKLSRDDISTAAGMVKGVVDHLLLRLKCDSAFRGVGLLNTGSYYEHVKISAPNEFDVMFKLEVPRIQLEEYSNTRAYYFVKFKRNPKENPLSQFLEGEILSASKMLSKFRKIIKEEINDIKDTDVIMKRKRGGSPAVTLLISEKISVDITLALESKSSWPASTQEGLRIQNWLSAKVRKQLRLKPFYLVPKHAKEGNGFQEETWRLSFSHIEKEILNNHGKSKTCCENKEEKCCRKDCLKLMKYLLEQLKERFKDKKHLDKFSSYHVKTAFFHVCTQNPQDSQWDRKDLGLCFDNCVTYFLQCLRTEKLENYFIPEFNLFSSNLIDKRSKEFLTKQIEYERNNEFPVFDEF
Compound,IC50 (cGAS; [4]) [nM],IC50 [1] [nM],IC50 [3] [nM],"IC50 (cGAS; biochemical (in vitro), human cGAS, 45 bp dsDNA, GTP/ATP) [nM]",IC50 [2] [µM],Ratio THP1(cGAMP) IC50 / THP1(vir) IC50 [2]
C#Cc1cnc(O[C@H]2C[C@@H](C(=O)O)N(c3nc(C(F)(F)F)nc4c3oc3ccccc34)C2)c(N2CCOC3(COC3)[C@@H]2C)c1 [Example 1.12],3,7,15,,11.9,1769
C#Cc1cnc(O[C@H]2C[C@@H](C(=O)O)N(c3nc(C(C)(F)F)nc4c3oc3ccccc34)C2)c(N2CCOC3(COC3)[C@@H]2C)c1 [Example 1.14],3,6,7,,> 16.6,>2708
C#Cc1cnc(O[C@H]2C[C@@H](C(=O)O)N(c3nc(C(C)(F)F)nc4c3oc3ccccc34)C2)c(N2CCOC3(COC3)[C@H]2C)c1 [Example 1.15],75,332,702,,26.2,79
C[C@H]1CN(C#N)CCN1c1cc(Br)cnc1O[C@H]1C[C@@H](C(=O)O)N(c2nc(C(F)F)nc3c2oc2ccccc23)C1 [Example 1.18],4,239,226,,6.51,27
C#Cc1cnc(O[C@H]2C[C@@H](C(=O)O)N(c3nc(C(F)F)nc4c3oc3ccccc34)C2)c(N2CCC3(C[C@@H]2C)N=N3)c1 [Example 1.20],2,796,670,,> 16.6,>21
C[C@@H]1N(c2cc(Cl)cnc2O[C@H]2C[C@@H](C(=O)O)N(c3nc(C(F)F)nc4c3oc3ccccc34)C2)CCCC12COC2 [Example 1.21],4,85,46,,14.8,175
C#Cc1cnc(O[C@H]2C[C@@H](C(=O)O)N(c3nc(C(F)(F)F)nc4c3oc3ccccc34)C2)c(N2CCCC3(COC3)[C@@H]2C)c1 [Example 1.22],5,21,29,,7.64,355
C#Cc1cnc(O[C@H]2C[C@@H](C(=O)O)N(c3nc(C(F)F)nc4c3oc3ccccc34)C2)c(N2CCCC3(COC3)[C@@H]2C)c1 [Example 1.23],4,10,12,,10.9,1134
C[C@H]1COC[C@H](C)N1c1cc(Br)cnc1O[C@H]1C[C@@H](C(=O)O)N(c2nc(C(F)F)nc3c2oc2ccccc23)C1 [Example 1.26],10,583,475,,9.93,17
C[C@H]1COCCN1c1cc(Cl)cnc1O[C@H]1C[C@@H](C(=O)O)N(c2nc(C(F)F)nc3c2oc2ccccc23)C1 [Example 1.27],4,516,221,,> 16.6,>32

# More lines, main results first:
IC50 (cGAS; [4]) [nM],IC50 [1] [nM],IC50 [3] [nM],"IC50 (cGAS; biochemical (in vitro), human cGAS, 45 bp dsDNA, GTP/ATP) [nM]",Compound,IC50 [2] [µM],Ratio THP1(cGAMP) IC50 / THP1(vir) IC50 [2]
2,19,19,,C[C@@H]1N(c2cc(Cl)cnc2O[C@H]2C[C@@H](C(=O)O)N(c3nc(C(F)F)nc4c3oc3ccccc34)C2)CCOC12COC2 [Example 1.09],22.1,1169
,91,33,5,"C[C@@H]1N(c2cc(Br)cnc2O[C@H]2C[C@@H](C(=O)O)N(c3nc(C(F)(F)F)nc4c3oc3ccccc34)C2)CCOC12COC2 [Example 1.10, (2S,4S)-4-({5-bromo-3-[(9S)-9-methyl-2,5-dioxa-8-azaspiro[3.5]nonan-8-yl]pyridin-2-yl}oxy)-1-[4-(trifluoromethyl)-8-oxa-3,5-diazatricyclo[7.4.0.0^2,7]trideca-1(9),2(7),3,5,10,12-hexaen-6-yl]pyrrolidine-2-carboxylic acid]",16.1,178
4,40,102,,C[C@@H]1N(c2cc(Cl)cnc2O[C@H]2C[C@@H](C(=O)O)N(c3nc(C(F)(F)F)nc4c3oc3ccccc34)C2)CCOC12COC2 [Example 1.13],16.4,413
3,7,23,,C#Cc1cnc(O[C@H]2C[C@@H](C(=O)O)N(c3nc(C(F)(F)Cl)nc4c3oc3ccccc34)C2)c(N2CCOC3(COC3)[C@@H]2C)c1 [Example 1.16],15,2209
17,154,305,,C#Cc1cnc(O[C@H]2C[C@@H](C(=O)O)N(c3nc(C(F)(F)C(F)(F)F)nc4c3oc3ccccc34)C2)c(N2CCOC3(COC3)[C@@H]2C)c1 [Example 1.17],> 16.6,>108
4,699,667,,C#Cc1cnc(O[C@H]2C[C@@H](C(=O)O)N(c3nc(C(F)F)nc4c3oc3ccccc34)C2)c(N2CCCC[C@@H]2C)c1 [Example 1.19],> 16.6,>24
